20 compounds from patent US7767676B2, “Dihydro-1,3,5-triazine amine derivatives and their therapeutic uses” (Merck Sante, priority 2000, dated 2010) can be followed below.

The subject of series [1] is Maillard reaction of bovine albumin with methylglyoxal. Description: Antiglycation activity: fructosamine assay after incubation of albumin with methylglyoxal. The series is classed as biochemical. The following applies: compound 10 mM, bovine albumin 6.6 mg/ml, 1 mM methylglyoxal, pH 7.4, 37° C., 6 days; relative to incubation without compound. The procedure: Study of the Antiglycation Activity
The compounds (I) are also capable of inhibiting the so-called Maillard reactions by “capturing effect” on the α-dicarbonyl-containing derivatives such as glyoxal—this is the antiglycation effect. This Maillard reaction inhibiting effect of the compounds according to the invention was studied in vitro by assaying ketamines (“fructosamines”) produced during the incubation of albumin with methylglyoxal in the presence or otherwise of a compound of formula (I) according to the invention.
A solution of bovine albumin at 6.6 mg/ml in 0.2 M phosphate buffer, pH 7.4, is incubated with 1 mM methylglyoxal in the presence or otherwise of a compound according to the invention at a concentration of 10 mM. The incubation is carried out under sterile conditions at 37° C. for 6 days. At the end of the incubation period, the quantity of ketamines is measure with a commercially available fructosamine assay kit (“FRA” kit, product reference: 0757055, Roche S. A. products) according to the manufacturer's instructions.
By way of example, results obtained under these experimental conditions are assembled in Table IV: level of fructosamine after incubation of the albumin with the methylglyoxal in the presence of compounds (I) according to the invention in relation to the level of fructosamine when albumin is incubated with methylglyoxal in the absence of the compounds (I) according to the invention.

Series [2] relates to non-insulin-dependent diabetes induced in rats by Streptozotocin. The series can be described thus: Antidiabetic activity in the Nostz rat (non-insulin-dependent diabetes induced by neonatal streptozotocin), glycaemia after oral treatment. The following applies: diabetic rats, blood 2 h after last administration; for change in vivo at 20 mg/kg: 20 mg/kg/D oral; for change in vivo at 200 mg/kg: 200 mg/kg/D oral. The series is classed as in vivo. On the procedure:
Study of the Antidiabetic Activity in the Nostz Rat
The antidiabetic activity of the compounds of formula (I) administered orally was determined on an experimental model of non-insulin-dependent diabetes induced in rats by Streptozotocin.
The non-insulin-dependent diabetes model is obtained in rats by neonatal injection (on the day of birth) of streptozotocin.
The diabetic rats used were 8 weeks old. The animals were kept, from the day of their birth to the day of the experiment, in an animal house at a controlled temperature of 21 to 22° C. and subjected to a fixed cycle of light (from 7 am to 7 pm) and darkness (from 7 pm to 7 am). Their diet consisted of a maintenance diet, water and food were provided “ab libitum”, with the exception of the 2 hours of fasting preceding the tests when the food is withdrawn (postabsorptive state).
The rats were treated by the oral route for one (D1) or four (D4) days with the product to be tested. Two hours after the last administration of the product and 30 minutes after anaesthetizing the animals with sodium pentobarbital (Nembutal a), 300 μl of blood sample are collected from the end of the tail.
By way of example, results obtained are assembled in Table III.

The mark [3] stands for this setting: 24 h, 1 day of treatment, read-out: percentage variation of glycaemia at D1 relative to D0.
Where [4] appears, read: 96 h, 4 days of treatment, read-out: percentage variation of glycaemia at D4 relative to D0.

Counter-ions that a name gives are not always drawn. Like-named read-outs stand apart in the source and are kept apart here. Bounds are passed on as bounds.

In general, melting point refers to the temperature, or range, at which the solid turns liquid. `CN(C)C1=NC(c2ccc(O)cc2)N=C(N)N1` (stereo not shown) [Compound 13] displayed a melting point of over 260 °C. In series [1], the “Reduction in the level of fructosamines (%)” value (“Reduction in the level … (%)” below) is 95%.

With `CN(C)C1=NCN=C(N)N1` [Compound 33], in series [2] (setting [3]), the change in vivo at 20 mg/kg was -7% and the change in vivo at 200 mg/kg was -9%. Also, in series [2] (setting [4]), the change in vivo at 20 mg/kg is -6% and the change in vivo at 200 mg/kg was -14%. Moreover, the “Reduction in the level … (%)” value in series [1] turned out to be 79%.

For `CC1N=C(N)NC(N(C)C)=N1` (stereo not shown) [Compound 18], in series [2] (setting [3]), the change in vivo at 20 mg/kg is -6% and the change in vivo at 200 mg/kg was -29%. In series [2] (setting [4]), the change in vivo at 20 mg/kg is -4% and the change in vivo at 200 mg/kg is -28%. Also, the “Reduction in the level … (%)” value in series [1] worked out at 69%.

`CN(C)C1=NC(Cc2ccccc2)N=C(N)N1` (stereo not shown) [Compound 37]: in series [2] (setting [3]), the change in vivo at 20 mg/kg is -7% and the change in vivo at 200 mg/kg is -10%. For the same compound, in series [2] (setting [4]), the change in vivo at 20 mg/kg was -8% and the change in vivo at 200 mg/kg is -15%. The “Reduction in the level … (%)” value in series [1] worked out at 65%.

As for `CN(C)C1=NC(c2ccccc2)N=C(N)N1` (stereo not shown) [Compound 10], the “Reduction in the level … (%)” value in series [1] was determined as 80%.

For the compound `CN(C)C1=NC(c2ccco2)N=C(N)N1` (stereo not shown) [Compound 40], in series [2] (setting [3]), the change in vivo at 20 mg/kg is -8% and the change in vivo at 200 mg/kg is -18%. In addition, in series [2] (setting [4]), the change in vivo at 20 mg/kg was -12% and the change in vivo at 200 mg/kg was -18%. In addition, the “Reduction in the level … (%)” value in series [1] stood at 66%.

On to `CCC1N=C(N)NC(N(C)C)=N1` (stereo not shown) [Compound 1, 2-amino-3,6-dihydro-4-dimethylamino-6-ethyl-1,3,5-triazine hydrochloride], for which, in series [2] (setting [3]), the change in vivo at 20 mg/kg was -7% and the change in vivo at 200 mg/kg is -13%. Further, in series [2] (setting [4]), the change in vivo at 20 mg/kg is -2% and the change in vivo at 200 mg/kg is -15%. Besides, in series [1], the “Reduction in the level … (%)” value is reported as 62%.

With `CN(C)C1=NC(C2CC=CCC2)N=C(N)N1` (stereo not shown) [Compound 45], in series [1], the “Reduction in the level … (%)” value is listed as 67%.

As for `CN(C)C1=NC(C(F)(F)F)N=C(N)N1` (stereo not shown) [Compound 36], in series [1], the “Reduction in the level … (%)” value worked out at 66%.

`CN(C)C1=NC(C(F)(F)F)N=C(N)N1` (stereo not shown) (as salt: toluenesulphonate) [Compound 36] yielded a melting point of 251 to 253 °C.

On to `CN(C)C1=NC(C2CCCCC2)N=C(N)N1` (stereo not shown) [Compound 34], for which, in series [2] (setting [3]), the change in vivo at 20 mg/kg was -5% and the change in vivo at 200 mg/kg was -6%. In addition, in series [2] (setting [4]), the change in vivo at 20 mg/kg is -15% and the change in vivo at 200 mg/kg is -21%. In addition, the “Reduction in the level … (%)” value in series [1] is 64%.

Turning to `CN1CCC2(CC1)N=C(N)NC(N(C)C)=N2` (as salt: HCl) [Compound 39], the melting point is over 260 °C.

On to `CN(C)C1=NC(Cc2ccccc2)N=C(N)N1` (stereo not shown) (as salt: toluenesulphonate) [Compound 37], for which the melting point lay within 159 to 161 °C.

On to `CN(C)C1=NC(C(C)(C)C)N=C(N)N1` (stereo not shown) (as salt: HCl) [Compound 42], for which the melting point was over 260 °C.

`COc1ccc(C2N=C(N)NC(N(C)C)=N2)cc1` (stereo not shown) [Compound 11]: the “Reduction in the level … (%)” value in series [1] is recorded as 89%.

For the compound `CC(C)CC1N=C(N)NC(N(C)C)=N1` (stereo not shown) [Compound 43], the change in vivo at 20 mg/kg is -4% in series [2] (setting [3]) and -16% in series [2] (setting [4]). Moreover, the change in vivo at 200 mg/kg in series [2] (setting [3]) is -12%; in series [2] (setting [4]), -17%. For the same compound, the “Reduction in the level … (%)” value in series [1] is 68%.

In turn, `CC1N=C(N(C)C)NC(N2CCCC2)=N1` (stereo not shown) (as salt: salt) [Compound 21] returned a melting point of over 140 °C.

Consider `CN(C)C1=NC(c2ccc(O)cc2)N=C(N)N1` (stereo not shown) [Compound 12], for which the “Reduction in the level … (%)” value in series [1] was 90%.

For `CN(C)C1=NC(C2CCCCC2)N=C(N)N1` (stereo not shown) (as salt: toluenesulphonate) [Compound 34], the melting point was 201 to 203 °C.

In turn, `CN(C)C1=NC(c2ccco2)N=C(N)N1` (stereo not shown) (as salt: HCl) [Compound 40] returned a melting point of 225 to 227 °C.
